Values of other authors in patent publication US9782416B2, “Pharmaceutical formulations of potassium ATP channel openers and uses thereof” (Essentialis, Inc., priority 2004, dated 2017).

Experiments:
[1] = target: Kir6.2/SUR1 channel (Rattus norvegicus, UniProt Q09429); conditions: Dabrowski et al. 2002
[2] = target: T1, KATP channel (Homo sapiens, UniProt Q09428); conditions: patients with hyperinsulinism and patients with pancreatic insulinoma
T1 construct: host or cells: patients with hyperinsulinism or pancreatic insulinoma (endogenous channel)
T1 sequence (Q09428 whole entry): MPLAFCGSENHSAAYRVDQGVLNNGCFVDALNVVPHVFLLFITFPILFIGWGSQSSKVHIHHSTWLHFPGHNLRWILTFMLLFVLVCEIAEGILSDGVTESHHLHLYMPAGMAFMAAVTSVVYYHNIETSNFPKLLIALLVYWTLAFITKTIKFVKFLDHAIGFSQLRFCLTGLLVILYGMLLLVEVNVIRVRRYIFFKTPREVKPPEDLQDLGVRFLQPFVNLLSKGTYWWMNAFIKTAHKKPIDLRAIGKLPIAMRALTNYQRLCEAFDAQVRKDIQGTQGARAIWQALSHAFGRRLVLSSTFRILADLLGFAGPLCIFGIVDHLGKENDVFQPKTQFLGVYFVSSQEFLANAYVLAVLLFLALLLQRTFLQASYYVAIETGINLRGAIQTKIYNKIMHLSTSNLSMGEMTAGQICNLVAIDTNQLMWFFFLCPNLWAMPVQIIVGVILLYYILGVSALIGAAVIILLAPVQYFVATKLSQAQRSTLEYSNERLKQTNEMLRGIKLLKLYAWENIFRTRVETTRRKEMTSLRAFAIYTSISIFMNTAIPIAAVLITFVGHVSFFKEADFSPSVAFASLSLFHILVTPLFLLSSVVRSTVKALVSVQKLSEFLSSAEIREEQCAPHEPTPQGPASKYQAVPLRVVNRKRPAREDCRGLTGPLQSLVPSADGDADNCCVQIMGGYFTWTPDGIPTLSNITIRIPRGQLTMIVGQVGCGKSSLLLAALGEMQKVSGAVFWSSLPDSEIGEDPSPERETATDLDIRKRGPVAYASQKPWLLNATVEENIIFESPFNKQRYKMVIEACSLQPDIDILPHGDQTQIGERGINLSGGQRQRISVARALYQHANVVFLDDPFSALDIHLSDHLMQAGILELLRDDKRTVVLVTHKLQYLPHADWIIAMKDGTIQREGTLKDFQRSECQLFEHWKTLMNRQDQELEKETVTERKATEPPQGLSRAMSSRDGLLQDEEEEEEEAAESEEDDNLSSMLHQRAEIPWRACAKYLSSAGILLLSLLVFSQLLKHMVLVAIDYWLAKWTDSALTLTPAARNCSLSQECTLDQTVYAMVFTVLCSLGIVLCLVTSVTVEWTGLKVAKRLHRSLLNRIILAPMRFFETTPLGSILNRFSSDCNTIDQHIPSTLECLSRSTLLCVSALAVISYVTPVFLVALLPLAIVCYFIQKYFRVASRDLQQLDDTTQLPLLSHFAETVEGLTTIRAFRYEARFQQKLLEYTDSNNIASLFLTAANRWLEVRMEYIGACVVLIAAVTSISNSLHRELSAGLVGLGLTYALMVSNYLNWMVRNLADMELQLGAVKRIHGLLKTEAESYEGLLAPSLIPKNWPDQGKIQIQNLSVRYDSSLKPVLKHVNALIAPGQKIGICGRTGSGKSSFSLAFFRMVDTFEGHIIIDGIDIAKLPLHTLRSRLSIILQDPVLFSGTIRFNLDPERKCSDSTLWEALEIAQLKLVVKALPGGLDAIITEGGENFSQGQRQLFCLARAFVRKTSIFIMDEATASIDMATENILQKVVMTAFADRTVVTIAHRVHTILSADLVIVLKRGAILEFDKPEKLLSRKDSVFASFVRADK
T1 sequence (Q14654 whole entry partner): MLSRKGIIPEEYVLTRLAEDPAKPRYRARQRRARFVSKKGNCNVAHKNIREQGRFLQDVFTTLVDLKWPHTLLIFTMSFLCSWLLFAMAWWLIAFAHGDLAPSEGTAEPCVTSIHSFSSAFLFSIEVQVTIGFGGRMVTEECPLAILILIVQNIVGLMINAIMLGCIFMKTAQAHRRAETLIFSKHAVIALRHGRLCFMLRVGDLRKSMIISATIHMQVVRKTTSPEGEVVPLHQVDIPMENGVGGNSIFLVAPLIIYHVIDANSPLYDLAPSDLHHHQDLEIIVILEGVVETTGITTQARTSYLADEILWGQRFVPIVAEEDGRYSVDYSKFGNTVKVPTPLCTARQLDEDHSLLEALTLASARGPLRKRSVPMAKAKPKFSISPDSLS

Kir6.2/SUR1 channel, sequence (Q09429 whole entry): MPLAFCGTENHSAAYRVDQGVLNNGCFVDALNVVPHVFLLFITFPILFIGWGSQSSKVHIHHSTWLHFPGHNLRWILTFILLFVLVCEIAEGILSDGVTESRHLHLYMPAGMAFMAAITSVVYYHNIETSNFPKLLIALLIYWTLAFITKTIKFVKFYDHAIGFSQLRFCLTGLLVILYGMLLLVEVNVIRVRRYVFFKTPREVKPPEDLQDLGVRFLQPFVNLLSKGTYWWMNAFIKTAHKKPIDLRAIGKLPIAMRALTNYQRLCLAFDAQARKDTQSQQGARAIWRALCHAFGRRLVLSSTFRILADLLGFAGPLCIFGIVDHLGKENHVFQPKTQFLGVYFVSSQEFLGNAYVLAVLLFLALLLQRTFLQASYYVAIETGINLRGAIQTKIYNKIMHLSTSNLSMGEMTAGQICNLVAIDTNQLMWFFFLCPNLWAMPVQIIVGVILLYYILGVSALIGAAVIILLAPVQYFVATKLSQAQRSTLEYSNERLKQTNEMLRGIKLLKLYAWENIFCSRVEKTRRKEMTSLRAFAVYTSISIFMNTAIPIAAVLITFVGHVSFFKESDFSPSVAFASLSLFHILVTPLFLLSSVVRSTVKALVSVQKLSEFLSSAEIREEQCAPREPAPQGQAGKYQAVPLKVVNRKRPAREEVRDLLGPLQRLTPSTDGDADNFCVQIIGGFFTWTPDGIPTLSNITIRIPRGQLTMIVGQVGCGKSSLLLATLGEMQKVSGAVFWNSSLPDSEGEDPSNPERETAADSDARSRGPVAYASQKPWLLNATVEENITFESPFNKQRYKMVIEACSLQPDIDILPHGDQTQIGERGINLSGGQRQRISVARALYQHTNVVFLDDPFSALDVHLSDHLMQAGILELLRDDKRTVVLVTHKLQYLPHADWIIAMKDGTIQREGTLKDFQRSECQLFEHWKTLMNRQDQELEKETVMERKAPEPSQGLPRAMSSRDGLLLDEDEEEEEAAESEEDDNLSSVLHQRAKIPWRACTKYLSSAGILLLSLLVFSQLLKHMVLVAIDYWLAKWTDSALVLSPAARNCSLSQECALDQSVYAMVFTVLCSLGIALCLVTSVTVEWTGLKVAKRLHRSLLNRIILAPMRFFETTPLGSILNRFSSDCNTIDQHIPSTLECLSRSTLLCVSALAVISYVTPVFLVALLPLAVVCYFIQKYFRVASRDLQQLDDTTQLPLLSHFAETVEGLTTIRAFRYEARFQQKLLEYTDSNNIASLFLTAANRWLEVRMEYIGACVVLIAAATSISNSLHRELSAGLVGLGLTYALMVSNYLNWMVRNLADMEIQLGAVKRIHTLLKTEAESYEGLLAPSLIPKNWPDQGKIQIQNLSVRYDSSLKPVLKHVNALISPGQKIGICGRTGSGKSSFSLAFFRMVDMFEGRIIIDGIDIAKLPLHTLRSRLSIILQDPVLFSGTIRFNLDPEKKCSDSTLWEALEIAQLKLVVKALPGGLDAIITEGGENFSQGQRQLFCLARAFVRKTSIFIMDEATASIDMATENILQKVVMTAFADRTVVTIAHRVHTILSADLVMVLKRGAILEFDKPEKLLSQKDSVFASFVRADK
Kir6.2/SUR1 channel, sequence (Q61743 whole entry partner): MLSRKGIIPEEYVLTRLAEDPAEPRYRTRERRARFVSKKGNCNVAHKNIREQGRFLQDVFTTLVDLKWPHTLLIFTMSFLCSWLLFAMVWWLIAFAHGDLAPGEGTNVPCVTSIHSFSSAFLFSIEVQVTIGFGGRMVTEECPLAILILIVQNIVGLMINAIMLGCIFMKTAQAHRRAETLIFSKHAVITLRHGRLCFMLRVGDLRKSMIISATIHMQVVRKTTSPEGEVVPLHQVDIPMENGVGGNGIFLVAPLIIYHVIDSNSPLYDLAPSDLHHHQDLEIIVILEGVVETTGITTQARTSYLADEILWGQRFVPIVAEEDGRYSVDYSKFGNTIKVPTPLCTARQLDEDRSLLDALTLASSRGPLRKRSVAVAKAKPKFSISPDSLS

channel opener selectivity [1]	KATP channel activator activity [2]	Structure (SMILES)
selective Kir6.2/SUR1 channel opener	–	COc1ccc2c(c1)S(=O)(=O)N=C(NC(C)C)N2 [3-isopropylamino-7-methoxy-4H-1,2,4,-benzothiadiazine 1,1-dioxide]
–	effective KATP channel activator	CC(C)N=C1Nc2cc(Cl)c(Cl)cc2S(=O)(=O)N1 [BPDZ 154]
